Measurements: publication PMC8062851, “2-Methoxyestradiol and its derivatives inhibit store-operated Ca^2+ entry in T cells: Identification of a new and potent inhibitor” (Biochimica et Biophysica Acta. Molecular Cell Research, 2021)
“Also recorded” adds a separate entry of the source.

System: IP3 receptors
Assay: IP3-evoked Ca2+ release in permeabilized Jurkat T cells
Type: cell-based, human
Conditions: 2 μM IP3
Protocol: 3 ∗ 10^7 Jurkat T-lymphocytes per measurement were centrifuged at 450 ×g for 5 min at room temperature. The pellet was rinsed twice, each time using 10 ml permeabilization buffer 1 (120 mM KCl, 10 mM NaCl, 1.2 mM MgCl2, 0.533 mM CaCl2, 1 mM EGTA and 10 mM HEPES, pH 7.2 (KOH), sterile filtered). Subsequently, the pellet was resuspended in 2 ml permeabilization buffer 1 containing 80 μg/ml saponin (Fluka) and the cells were incubated for 10 min at 37 °C. Subsequently, the cells were centrifuged at 450 ×g for 5 min at room temperature and the cell pellet was washed once in 10 ml permeabilization buffer 2 (120 mM KCl, 10 mM NaCl, 1.2 mM MgCl2 and 10 mM HEPES, pH 7.2 (KOH), sterile filtered). Finally, the cells were taken up in 1 ml permeabilization buffer 2, placed into a cuvette and measured at the fluorescence spectrophotometer. Before the start of the measurement, 0.5 μl of 1 mM Fura2 free acid (dissolved in pure water, final concentration: 0.5 μM), 5 μl of 5 mg/ml creatinkinase (dissolved in permeabilization buffer 2, final concentration: 25 μg/ml, 20 U/ml, Roche) and 10 μl of 2 M creatin phosphate (dissolved in permeabilization buffer 2, final concentration: 20 mM, Calbiochem) were added. Fura2 was used to measure the Ca^2+ concentration and creatinkinase and creatin phosphate were used as ATP-regenerating system. The measurement was controlled by FL Solutions (Version 4.1, Hitachi High-Technologies Corporation). Fura2 was alternatively excited every 2 s at 340 ± 5 nm and 380 ± 5 nm, each 400 ms apart. Fluorescence intensity was measured at an emission wavelength of 495 ± 5 nm for both excitation wavelengths. […] Ca^2+ concentrations were calculated according to Grynkiewicz et al. as described earlier in Section 2.4.
As a quantitative read-out for inhibition of IP3 receptors, the peak [Ca^2+] after IP3 addition was subtracted from the mean [Ca^2+] between 25 and 75 s before IP3 addition (dPeak). […] The rate constant K of the fitted data was used as a quantitative read-out for SERCA pump activity and its inhibition.

Q: With CCc1cc2c(cc1OS(N)(=O)=O)CC[C@@H]1[C@@H]2CC[C@]2(C)[C@@H](CC#N)CC[C@@H]12 [STX564, 2-ethyl-3-sulfamoyloxy-17β-cyanomethylestra-1,3,5(10)-triene] as the compound, how does the “effect on IP3-evoked Ca2+ release” value read?
A: Neither STX564 nor Synta66 affected IP3-evoked Ca^2+ release significantly; also recorded: did not inhibit the Ca^2+ release by IP3
